# Where no end group is shown, it is not given here.
# Legend:
# [1] = tested on: spontaneously hypertensive rats (SHRs); experiment: Effects on blood pressures of spontaneously hypertensive rats; assay type: in vivo, rat
# Protocol: Spontaneously hypertensive rats (SHRs, each weighting approximately 250 g, 14 weeks old) were obtained from Vitonglihua Test Animal Biotech. Co., Ltd. (Beijing, China) and used to investigate the hypotensive ability of ACE inhibitory and antioxidant SAGH peptides. After 7 days of adaptation, the SHRs were assigned to the blank, positive, SAGH peptides, and SAGH peptide–ferrous chelate groups (each group contained six SHRs), which were orally administered NaCl ([…]), captopril (14 mg per body weight kg), peptides (50, 150, and 200 mg per body weight kg), and peptide–ferrous chelates (50, 150, and 200 mg per body weight kg) every day, respectively. At 0, 120, 360, and 600 min after oral administration, the systolic and diastolic blood pressures and heart rates of the SHRs were measured using a NIBP-M1 Rat-tail noninvasive blood pressure monitor (Yuyan Scientific Instrument Co., Ltd., Shanghai, China) following the tail cuff method.
# [2] = Superoxide radical scavenging activity (pyrogallol auto-oxidation method); assay type: physicochemical; details: at 100 μg/mL
# Protocol: As described by Wang et al. and Vásquez et al., the hydroxyl (·OH) and superoxide ( O2−· ) radicals’ scavenging activity was measured using the β-deoxyribose oxidation and pyrogallol auto-oxidation methods, respectively. The comparison was conducted when the samples were replaced by glutathione (0.1 mg/mL).
# [3] = Reducing power (potassium ferricyanide method); assay type: physicochemical; details: at 100 μg/mL, absorbance at 700 nm
# From the text: The potassium ferricyanide method was employed to determine the reducing power of the SAGH peptides at the same conditions reported by Wang et al., where the absorbance at 700 nm represented the reducing power.
# ACE (from rabbit lungs) = molecular target: T1, ACE (from rabbit lungs) (Oryctolagus cuniculus, UniProt P12822); experiment: ACE inhibitory ability (hippuric acid method); assay type: biochemical; details: hippuric acid method, HHL substrate, absorbance at 228 nm; N = 3; read-out: ACE inhibitory activity (IC50)
# T1 construct: ACE (0.1 U, from rabbit lungs, purity > 99.7%, CAS: 9015-82-1) was obtained from Sigma-Aldrich; purchased Sigma-Aldrich (St. Louis, MO, USA); host or cells: rabbit lung tissue
# T1 sequence (P12822 34-1310): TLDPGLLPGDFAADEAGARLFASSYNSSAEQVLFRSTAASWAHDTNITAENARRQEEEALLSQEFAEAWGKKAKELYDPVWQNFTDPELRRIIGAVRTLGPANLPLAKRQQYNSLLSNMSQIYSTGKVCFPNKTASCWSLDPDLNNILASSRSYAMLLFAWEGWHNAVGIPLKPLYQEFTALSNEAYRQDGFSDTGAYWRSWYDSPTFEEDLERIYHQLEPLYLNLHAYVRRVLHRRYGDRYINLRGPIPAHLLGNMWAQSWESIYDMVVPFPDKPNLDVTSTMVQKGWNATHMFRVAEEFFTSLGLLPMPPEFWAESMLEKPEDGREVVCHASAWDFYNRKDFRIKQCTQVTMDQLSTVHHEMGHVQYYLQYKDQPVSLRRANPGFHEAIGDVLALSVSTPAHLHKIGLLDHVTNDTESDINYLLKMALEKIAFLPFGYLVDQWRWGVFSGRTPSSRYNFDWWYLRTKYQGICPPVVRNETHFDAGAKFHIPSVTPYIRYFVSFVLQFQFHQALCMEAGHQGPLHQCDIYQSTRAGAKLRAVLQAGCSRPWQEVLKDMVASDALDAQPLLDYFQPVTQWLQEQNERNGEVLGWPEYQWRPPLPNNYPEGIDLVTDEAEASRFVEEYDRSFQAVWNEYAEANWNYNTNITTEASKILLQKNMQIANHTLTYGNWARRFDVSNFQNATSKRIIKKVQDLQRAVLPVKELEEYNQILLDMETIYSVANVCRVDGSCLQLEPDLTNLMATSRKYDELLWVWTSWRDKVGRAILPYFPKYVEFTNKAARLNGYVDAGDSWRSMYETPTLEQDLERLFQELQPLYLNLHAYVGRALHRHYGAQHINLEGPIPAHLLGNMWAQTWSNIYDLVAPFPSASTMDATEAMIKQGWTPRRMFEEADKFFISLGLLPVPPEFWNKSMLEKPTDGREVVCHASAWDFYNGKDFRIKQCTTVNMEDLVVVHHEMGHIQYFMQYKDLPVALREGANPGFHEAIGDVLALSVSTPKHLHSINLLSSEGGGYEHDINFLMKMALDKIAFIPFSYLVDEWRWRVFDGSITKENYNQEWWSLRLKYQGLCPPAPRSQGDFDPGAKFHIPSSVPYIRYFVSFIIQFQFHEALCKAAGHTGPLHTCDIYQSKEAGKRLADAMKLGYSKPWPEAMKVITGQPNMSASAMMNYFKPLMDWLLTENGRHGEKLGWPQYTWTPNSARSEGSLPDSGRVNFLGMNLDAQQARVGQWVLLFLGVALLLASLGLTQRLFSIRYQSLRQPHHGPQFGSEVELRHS
# From the text: The hippuric acid method was used to measure the samples’ inhibitory ability towards ACE, following the same procedures as Zheng et al.. The absorbance at 228 nm was the hippuric acid content and represented ACE activity; therefore, the inhibitory ability of samples towards ACE was defined as the percentage of reduction in the absorption at 228 nm between the control and sample groups. Moreover, the ACE inhibitory kinetic of SAGH peptides was investigated by employing a Lineweaver–Burk plot with N-hippuryl-L-histidyl-L-leucine (HHL, 0.13–1.32 mmol/L) as the substrate.
# As described by Wu et al., the simulative gastric digestive fluid consisted of sodium chloride (0.18 mol/L), ultrapure water (180 mL), and 0.40 mg/mL of pepsin. The simulation intestinal digestive juice was composed of NaHCO3, ([…]), bile salt (3 g/100 mL), pancreatin (0.35 mg/mL), and 180 mL of ultrapure water. The antihypertensive and antioxidant SAGH peptides (5 mg/mL, 60 mL) were first hydrolyzed using 150 mL of simulative gastric fluid at 37 °C and 140 rpm for 90 min. The mixture was adjusted to pH 7.0, and 180 mL of the simulative intestinal hydrolysis fluid was added and stirred at 37 °C for 2 h. After boiling for 6 min, the mixture was cooled with running water to room temperature. The ACE inhibition capacity and antioxidant ability of the treated SAGH peptides were detected and compared to those of the […] SAGH peptides.
# [4] = Gastrointestinal stability of peptide–ferrous chelate (ferrous solubility in simulated digestion); assay type: in vitro ADME
# Protocol: Next, the intestinal digestive fluid was added, and digestion was continued at pH 6.8 for 2 h in the EDZF-C002 thermostatic vibrator ([…], 175 rpm).
# [5] = listed as PMYGGGMV–ferrous chelates
substance,measurement,setting,value
PMYGGGMV–ferrous chelate: chelate prepared by reacting the peptide with FeCl2 at pH 6.5 (also: ferrous iron chelate (reaction with FeCl2)),dose dependence of blood pressure lowering effect,"[1]; oral, 50, 150 and 200 mg/kg body weight, p > 0.05",not dose-dependent
same,effect on diastolic and systolic blood pressures,"[1]; oral, 50–200 mg/kg body weight, from 1 h of dosing, tail cuff method, p < 0.05",apparently lowered the diastolic and systolic blood pressures
same,Superoxide Radical Scavenging Ability (%) Before Gastrointestinal Digestion,[2],75.49 ± 4.09 b %
same,Superoxide Radical Scavenging Ability (%) Before Gastrointestinal Digestion,[2]; [5],75.49%
same,Reducing Power Before Gastrointestinal Digestion,[3],0.179 ± 0.003 e
same,Reducing Power Before Gastrointestinal Digestion,[3]; [5],0.179
same,IC50,ACE (from rabbit lungs),116 µM
same,ferrous solubility during gastric digestion,"[4]; 0–90 min, simulated gastric fluid pH 1.9, 37 °C, 175 rpm, soluble ferrous by o-phenanthroline every 30 min, N = 3",relatively stable
same,ferrous solubility during intestinal digestion,"[4]; 91–240 min, intestinal digestive fluid pH 6.8, soluble ferrous by o-phenanthroline, p < 0.05",apparently decreased
same,ferrous solubility compared with ferrous lactate and ferrous chloride,"[4]; from 90 to 150 min of simulated gastrointestinal digestion, p < 0.05",much higher than those of ferrous lactate and ferrous chloride
